What was measured:
Cyp enzymes = assay: Time-dependent (mechanism-based) Cyp inhibition; type: in vitro ADME, human; conditions: not shown
Method: Human liver microsomes were pre-incubated with 7 concentrations (0.1–100 mM, duplicate wells) of α-NETA for 30 min.

(hu)CMKLR1 L1.2 cells = assay: Chemotaxis assay toward huChemerin; type: cell-based, human; conditions: Homo sapiens; (hu)CMKLR1 L1.2 cells migrating toward huChemerin, 2 h; read-out: Chemotaxis IC50 mean ± SEM (n)
Method: (hu)CMKLR1 transfectants (generated in L1.2 pre-B cell lymphoma cells) were grown in RPMI 1640 (Corning) supplemented with L-glutamine, penicillin-streptomycin, and 10% BCS and G418-sulfate (KSE Scientific). DiscoverX PathHunter® CHO-K1 CMKLR1 β-Arrestin Cells were grown in RPMI lacking phenol red (Gibco, Life Technologies), supplemented with L-glutamine, penicillin-streptomycin, sodium pyruvate, non-essential amino acid, BCS, hygromycin, and G418-sulfate.
(hu)CMKLR1 L1.2 cells at 1 × 10^6 cell/ml were treated with 5 mM sodium butyrate (Sigma) overnight to induce hCMKLR1 expression. The next day, cells were washed in migration media (RPMI + 0.5%BSA) and resuspended at 1.5–3 × 10^6 cell/ml. Cells were pre-incubated at RT for 10 min with various concentrations of α-NETA or test compounds (α-NETA and test compounds were reconstituted in DMSO; final DMSO concentration in each well was 0.1%). 100 ul of cells were added to the upper chamber of a 24-well transwell plate (5 um pore size, Costar). Cells were allowed to migrate toward huChemerin ([…] in migration media, bottom chamber) for 2 h, 37 °C, 5% CO2. The number of migrated cells was quantified by flow cytometry (BD LSR2), and live cells were distinguished based on FSC × SSC properties. The background for this assay was typically low with 0 cells migrating to the buffer alone. For each independent trial, data was normalized to the maximum migration per compound tested and an IC50 value was generated using GraphPad Prism software. The average IC50 value for n independent trials (as specified in the table) is reported.

Cyp2C19 = molecular target: T1, Cyp2C19 (Homo sapiens, UniProt P33261); assay: Cyp enzyme inhibition in human liver microsomes; type: in vitro ADME; conditions: 30 min pre-incubation
T1 construct: tissue Cyprotex/Evotec AG; host or cells: human liver microsomes

Cyp2C8 = molecular target: T2, Cyp2C8 (Homo sapiens, UniProt P10632); assay: Cyp enzyme inhibition in human liver microsomes; type: in vitro ADME; conditions: 30 min pre-incubation
T2 construct: tissue Cyprotex/Evotec AG; host or cells: human liver microsomes
T2 sequence (P10632 1-490): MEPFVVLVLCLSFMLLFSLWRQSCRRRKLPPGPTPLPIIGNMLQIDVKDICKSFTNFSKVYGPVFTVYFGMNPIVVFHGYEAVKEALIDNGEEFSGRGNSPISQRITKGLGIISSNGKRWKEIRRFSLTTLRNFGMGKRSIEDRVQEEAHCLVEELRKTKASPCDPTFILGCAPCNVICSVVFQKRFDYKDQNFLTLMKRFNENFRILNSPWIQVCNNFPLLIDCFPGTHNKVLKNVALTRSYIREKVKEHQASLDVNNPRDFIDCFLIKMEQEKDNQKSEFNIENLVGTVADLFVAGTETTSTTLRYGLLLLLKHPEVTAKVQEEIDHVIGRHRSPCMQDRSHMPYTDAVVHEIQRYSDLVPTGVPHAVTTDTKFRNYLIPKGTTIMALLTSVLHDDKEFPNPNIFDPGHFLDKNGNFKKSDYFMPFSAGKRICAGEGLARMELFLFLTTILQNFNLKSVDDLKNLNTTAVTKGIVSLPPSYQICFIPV

Cyp3A4 = test system: Cyp3A4; parameters: method as in PMID 25437209; conditions: substrate luciferin-6′ phenylpiperazinylyl; PubChem; cited from earlier work
Cyp1A2 = test system: Cyp1A2; parameters: method as in PubChem BioAssay ID 1476; conditions: ref PubChem BioAssay ID 1476; cited from earlier work

T1 sequence (P33261 whole entry): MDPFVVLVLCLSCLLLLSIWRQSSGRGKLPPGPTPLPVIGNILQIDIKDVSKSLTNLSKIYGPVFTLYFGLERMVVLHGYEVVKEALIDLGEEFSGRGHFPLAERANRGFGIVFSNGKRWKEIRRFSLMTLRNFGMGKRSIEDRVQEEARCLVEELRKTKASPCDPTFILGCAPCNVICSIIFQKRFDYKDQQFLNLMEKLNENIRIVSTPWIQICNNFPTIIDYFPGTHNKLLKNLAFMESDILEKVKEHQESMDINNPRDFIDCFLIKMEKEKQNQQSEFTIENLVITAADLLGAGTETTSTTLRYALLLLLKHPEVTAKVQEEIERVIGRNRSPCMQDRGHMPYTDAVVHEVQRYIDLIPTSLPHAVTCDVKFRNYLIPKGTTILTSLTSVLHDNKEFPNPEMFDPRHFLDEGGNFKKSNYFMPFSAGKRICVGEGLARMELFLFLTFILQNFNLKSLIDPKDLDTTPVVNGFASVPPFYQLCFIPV

Structure (SMILES): C[N+](C)(C)CCC(=O)c1cccc2ccccc12.[I-] [α-NETA, 2-(α-naphthoyl) ethyltrimethylammonium iodide]
- time-dependent (mechanism-based) Cyp inhibition (Cyp enzymes): No time-dependent (mechanism-based) Cyp inhibition was detected
- IC50 ((hu)CMKLR1 L1.2 cells): 37 ± 8.9 µM
- IC50 (Cyp2C19): 84 µM
- IC50 (Cyp2C8): 1.5 µM
- IC50 (Cyp3A4): 0.2 µM
- IC50 (Cyp1A2): 8 µM

From publication PMC6509344, “Novel CMKLR1 Inhibitors for Application in Demyelinating Disease” (Scientific Reports, 2019)
